The text below walks through data of patent publication US20030195161A1, “Composition comprising camptothecin or a camptothecin derivative and a topoisomerase II inhibitor for the treatment of cancer” (priority 2000, published 2003).

Read-outs that look alike come from different tables or passages of the source. Marks after values point to notes of the source that are not given here.

In data set [1] the test system is P388. Format: in vivo, mice. The following applies: highest non-toxic dose. As for the experimental part:
(§1) Cross-resistance between various agents was measured in murine leukemia cell lines. P388/CPT is a camptothecin-resistant leukemia that was established in vitro (Biochem. Pharmacol., 45: 339 (1993)) and maintained in vivo by i.p. passages in DBA2 female mice. The chemosensitivity of i.p. P388/CPT was evaluated with i.v. P388 sensitive reference drugs with different mechanisms of action. Antitumor efficacy was determined at the highest non-toxic dose as percent increase in life span (ILS), where:
(§2) ILS=100×[(median day of death (MDD) of treated mice)−(MDD control mice)][…]
(§3) A minimal level of activity equals an ILS of greater than 26%. P388/CPT was found resistant to camptothecin s.c. and CPT-11, but sensitive to both doxorubicin and etoposide. […] Table II tabulates the results from this study.

The test system of data set [2] is P388/CPT. Kind of data set: Percent increase in life span, camptothecin-resistant i.p. P388/CPT leukemia (Example 2). Format: in vivo, mice. The following applies: for Comment (chemosensitivity of P388/CPT): minimal activity = ILS greater than 26%; for % ILS: i.p. P388/CPT, highest non-toxic dose. As for the experimental part:
as §1, §2, §3

In data set [3] the test system is MA16/C, sc. The following applies: mouse, in vivo.
Experimental: (§6) The effectiveness of irinotecan combination chemotherapy methods was tested in a dose response study in a murine tumor model. Three arms were evaluated for tolerance and efficacy. Tolerance was measured by mortality, body weight loss at nadir, host recovery time, and combination toxicity index. Efficacy end points for solid tumor models were tumor growth delay (T/C), log10 cell kill (LCK, defined above), tumor regressions (i.e., complete remission (CR),or partial remission (PR)).
(§7) The LD10 for the single agent was obtained by plotting the toxicity of that agent and the dosage in mg/kg as a log probit graph. Subsequently, the CTI LD10 was obtained by plotting as a log probit graph the observed lethality and the corresponding CTI calculated as the sum of the fraction of the LD10 of each single agent.
For data set [4], the system named is MA16/C, sc. Kind of data set: Dose response combination study, MA16/C sc (Example 5).
Experimental: as §6, §7
Data set [5] has as its system P03, sc. The experiment in a line: Dose response combination study, P03 sc (Example 5). Format: in vivo, murine. As for the experimental part: Three arms were evaluated for tolerance and efficacy.
The subject of data set [6] is Pancreatic Ductal Adenocarcinoma P03.
Experimental: In the first arm, three doses of CPT were given orally on days six through nine, twice a day. In the second arm, three doses of doxorubicin were given intravenously on days six and nine. In the combination third arm, five dosage levels of CPT-11 were administered orally on days six through nine, twice a day, with administration of five dosage levels of doxorubicin intravenously on days six and nine. This third arm illustrated an example of semi-simultaneous administration. In all three arms, the two daily administrations of CPT-11 were given four hours apart.
The subject of data set [7] is C26. The following applies: C26 (BALB/c); for LCK: at optimal total dose. As for the experimental part:
(§4) This efficacy may be quantified, for example by the log10 cell kill, which is determined by the following formula: […]
(§5) in which T−C represents the time taken for the cells to grow, which is the mean time in days for the tumors of the treated group (T) to reach a predetermined value (1 g for example) and the tumors of the control group (C) to reach the same value, and Td represents the time in days needed for the volume of the tumors in the control group to double. […] A product is considered to be active if the log10 cell kill is greater than or equal to 0.7. A product is considered to be very active if the log10 cell kill is greater than 2.8.

The test system of data set [8] is C51. The settings on record: C51 (BALB/c), days 5, 7, 9, 13, 15, twice daily; for LCK: at optimal total dose. As for the experimental part: as §4, §5
For data set [9], the system named is GOS. The settings on record: GOS (B6D2F1); for LCK: at optimal total dose. As for the experimental part: as §4, §5
The subject of data set [10] is MA16/C. The following applies: MA16/C (C3H/HeN); for Optimal Total Dose: days 5-9; for LCK: days 5-9, at optimal total dose. As for the experimental part:
as §4, §5

Data set [11] relates to P03. The following applies: P03 (B6D2F1), twice daily; for LCK: at optimal total dose. As for the experimental part: as §4, §5
The nature of data set [12]: Tolerance of oral and i.v. irinotecan in tumor bearing mice (Example 1). The settings on record: oral and intravenous. Format: in vivo.
The mark [13] stands for this setting: Doxorubicin i.v. 3.8 mg/kg/adm, days 6, 9.
The mark [14] stands for this setting: Doxorubicin i.v. 6.2 mg/kg/adm, days 6, 9.
Setting [15] is: Doxorubicin i.v. 10.0 mg/kg/adm, days 6, 9.
Where [16] appears, read: CPT-11 p.o. 38.8 mg/kg/adm, days 6-9 (twice/day).
The mark [17] stands for this setting: CPT-11 p.o. 62.5 mg/kg/adm, days 6-9 (twice/day).
Setting [18] is: CPT-11 p.o. 100.8 mg/kg/adm, days 6-9 (twice/day).

For the compound `COc1cc([C@@H]2c3cc4c(cc3[C@@H](O[C@@H]3O[C@@H]5CO[C@@H](C)O[C@H]5[C@H](O)[C@H]3O)[C@H]3COC(=O)[C@H]23)OCO4)cc(OC)c1O` [etoposide], in [1] (P388, agent i.v.), the “% ILS” value was 127%. Moreover, in [2] (agent i.v.), the “Comment (chemosensitivity of P388/CPT)” value was “sensitive” and the “% ILS” value is listed as 121%. In addition, in [3], the “HNTD Dose” value was determined as 90.0 mg/kg. Moreover, the LCK in [4] (mouse, in vivo) came to 2.2.
Turning to `COc1cccc2c1C(=O)c1c(O)c3c(c(O)c1C2=O)C[C@@](O)(C(=O)CO)C[C@@H]3O[C@H]1C[C@H](N)[C@H](O)[C@H](C)O1` [doxorubicin], the “% ILS” value in data set [1] (P388, agent i.v.) is reported as 122%. Further, in data set [2] (agent i.v.), the “Comment (chemosensitivity of P388/CPT)” value is listed as “sensitive” and the “% ILS” value turned out to be 180%. For the same compound, the tumor free survivors in data set [5] (doxorubicin i.v. single agent at HNTD 20.0 mg/kg, days 6, 9) was 4/5. In addition, in data set [5] (doxorubicin i.v. single agent, days 6, 9), the “HNTD Dose” value stood at 20.0 mg/kg. In data set [6] (setting [13]), the Comments result is on record as “Active”, the Log10 cell kill was found to be 1.0, the T-C amounted to 7.5 days and the “Time for median tumor to reach 1000 mg” value is 23.9 days. Besides, in data set [6] (setting [14]), the Comments entry was “Active”, the Log10 cell kill is recorded as 1.2, the T-C worked out at 9.5 days and the “Time for median tumor to reach 1000 mg” value is listed as 25.9 days. In addition, in [6] (setting [15]), the Comments entry is on record as “HDT highly active” and the tumor free survivors entry is “*There are no values presented because 4 out of 5 animals tested were tumor free survivors”.
Turning to `CCc1c2c(nc3ccc(OC(=O)N4CCC(N5CCCCC5)CC4)cc13)-c1cc3c(c(=O)n1C2)COC(=O)[C@]3(O)CC` [CPT-11, irinotecan], the “Optimal Total Dose” value in [7] (i.v., twice daily) is 228 mg/kg; in data set [7] (oral, days 3-7 twice daily) it was 558 mg/kg; in data set [8] (i.v.), 615 mg/kg; in data set [8] (oral) it was 845 mg/kg; in [9] (i.v., days 3, 5, 7 twice daily) it was 346.2 mg/kg; in data set [9] (oral, days 3-7, twice daily), 900 mg/kg. In addition, the “Optimal Total Dose” value in data set [10] (i.v.) is recorded as 130.5 mg/kg; in data set [10] (oral), 230.5 mg/kg; in [11] (i.v.), 346.2 mg/kg; in data set [11] (oral), 900 mg/kg. Further, the LCK amounted to 0.7 in data set [7] (i.v., twice daily); 0.9 in [7] (oral, days 3-7 twice daily); 3.0 in [8] (i.v.); 2.5 in data set [8] (oral); 2.2 in data set [9] (i.v., days 3, 5, 7 twice daily); 2.1 in [9] (oral, days 3-7, twice daily). In addition, the LCK is given as 2.6 in data set [10] (i.v.); 2.7 in [10] (oral); 3.2† in [11] (i.v.); 3.4† in data set [11] (oral); 1.3 in data set [5] (CPT-11 p.o. single agent at HNTD 806 mg/kg, days 6-9 twice daily); 2.0 in data set [4] (CPT-11 p.o. single agent at HNTD 198.5 mg/kg, MA16/C sc, days 3-7). The “tumor free survivor on day 120” value is reported as “†1/5 tumor free survivor on day 120” in [11] (i.v., 346.2 mg/kg total) and “†1/5 tumor free survivor on day 120” in data set [11] (oral, 900 mg/kg total). In data set [12] (days post last administration), this compound gave a nadir of 7 days. In addition, the recovery in data set [12] (days post nadir (i.e., 12 days post first administration)) turned out to be 5 days. In [12] (similar tolerance), this compound yielded a body weight loss of 8.5%. Moreover, the “% ILS” value turned out to be 91% in data set [1] (P388, agent i.v.) and 0% in data set [2] (agent i.v.). Moreover, in data set [2] (agent i.v.), the “Comment (chemosensitivity of P388/CPT)” value is recorded as “resistant”. Also, the “HNTD Dose” value in [5] (CPT-11 p.o. single agent, days 6-9 twice daily) is listed as 806 mg/kg; in [4] (CPT-11 p.o. single agent, MA16/C sc, days 3-7) it was 198.5 mg/kg. The Comments result in data set [6] (setting [16]) is on record as “Inactive”; in data set [6] (setting [17]), “Active”; in [6] (setting [18]), “HDT active”. Besides, the Log10 cell kill was 0.5 in [6] (setting [16]), 1.2 in data set [6] (setting [17]) and 1.3 in data set [6] (setting [18]). In addition, the T-C was 4.0 days in data set [6] (setting [16]), 9.3 days in data set [6] (setting [17]) and 9.8 days in data set [6] (setting [18]). For the same compound, the entries for the “Time for median tumor to reach 1000 mg” value in data set [6] (setting [16]), in data set [6] (setting [17]) and in data set [6] (setting [18]) were 20.4 days, 25.7 days and 26.2 days, respectively.
For the compound `CC[C@@]1(O)C(=O)OCc2c1cc1n(c2=O)Cc2cc3ccccc3nc2-1` [CPT, camptothecin], the “% ILS” value in data set [1] (P388, agent s.c.) came out at 82%. Moreover, in data set [2] (agent s.c.), the “Comment (chemosensitivity of P388/CPT)” value was “resistant” and the “% ILS” value is 0%.
